Laboratory results as given in ChEMBL document CHEMBL4043204, “meso-Dihydroguaiaretic acid derivatives with antibacterial and antimycobacterial activity” (Bioorg Med Chem, 2017).
Converted amounts (≈) assume the structure as drawn. The source made the active and inactive calls. No cut-off for these calls is given here.

Experiments:
Acinetobacter baumannii = experiment: Antibacterial activity against carbapenem-resistant Acinetobacter baumannii (12-666) assessed as inhibition of microbial growth up to 50 ug/ml incubated for 24 hrs by microdilution assay; format: functional
Escherichia coli [1] = experiment: Antibacterial activity against extended-spectrum beta-lactamase-positive Escherichia coli (14-2081) assessed as inhibition of microbial growth up to 50 ug/ml incubated for 24 hrs by microdilution assay; format: functional
Escherichia coli [2] = experiment: Antibacterial activity against oxacillin-resistant Escherichia coli OXA-48 assessed as inhibition of microbial growth up to 50 ug/ml incubated for 24 hrs by microdilution assay; format: functional
Pseudomonas aeruginosa = experiment: Antibacterial activity against carbapenem-resistant Pseudomonas aeruginosa (13-1391) assessed as inhibition of microbial growth up to 50 ug/ml incubated for 48 hrs by microdilution assay; format: functional
Klebsiella pneumoniae [3] = experiment: Antibacterial activity against NDM-1 positive Klebsiella pneumoniae (14-3335) assessed as inhibition of microbial growth up to 50 ug/ml incubated for 24 hrs by microdilution assay; format: functional
Klebsiella pneumoniae [4] = experiment: Antibacterial activity against extended-spectrum beta-lactamase-positive Klebsiella pneumoniae (14-2081) assessed as inhibition of microbial growth up to 50 ug/ml incubated for 24 hrs by microdilution assay; format: functional
Providencia rettgeri = experiment: Antibacterial activity against NDM-1 positive Providencia rettgeri assessed as inhibition of microbial growth up to 50 ug/ml incubated for 24 hrs by microdilution assay; format: functional
[5] = test system: Stenotrophomonas maltophilia; experiment: Antibacterial activity against trimethoprim-sulfamethoxazole-resistant Stenotrophomonas maltophilia assessed as inhibition of microbial growth up to 50 ug/ml incubated for 24 hrs by microdilution assay; format: functional
Enterococcus faecium = experiment: Antibacterial activity against vancomycin-resistant Enterococcus faecium (10-984) assessed as inhibition of microbial growth incubated for 24 hrs by microdilution assay; format: functional
Staphylococcus aureus = experiment: Antibacterial activity against methicillin-resistant Staphylococcus aureus (14-2095) assessed as inhibition of microbial growth incubated for 24 hrs by microdilution assay; format: functional
Vero = experiment: Cytotoxicity against African green monkey Vero cells assessed as reduction in cell viability incubated for 24 hrs by trypan blue staining based assay; details: Chlorocebus sabaeus
[6] = test system: Staphylococcus epidermidis; experiment: Antibacterial activity against linezolid-resistant Staphylococcus epidermidis (14-583) assessed as inhibition of microbial growth incubated for 24 hrs by microdilution assay; format: functional
[7] = test system: Staphylococcus haemolyticus; experiment: Antibacterial activity against linezolid-resistant Staphylococcus haemolyticus 2975 assessed as inhibition of microbial growth incubated for 24 hrs by microdilution assay; format: functional; details: Staphylococcus haemolyticus, 2975, 24 h
[8] = Selectivity index, ratio of IC50 for cytotoxicity against African green monkey Vero cells to MIC for antibacterial activity against methicillin-resistant Staphylococcus aureus (14-2095)
[9] = test system: Mycobacterium tuberculosis; experiment: Antimycobacterial activity against Mycobacterium tuberculosis H37Rv ATCC 27294 assessed as inhibition of mycobacterial growth incubated for 2 weeks by MABA method; format: functional; details: for MIC: Mycobacterium tuberculosis, H37Rv ATCC 27294, 336 h
[10] = Selectivity index, ratio of IC50 for cytotoxicity against African green monkey Vero cells to MIC for Mycobacterium tuberculosis H37Rv ATCC 27294; format: toxicity, cell-based; details: read-out: Selectivity Index
Bacillus subtilis = experiment: Antibacterial activity against Bacillus subtilis; format: functional
Jonesia denitrificans = experiment: Antibacterial activity against Listeria denitrificans; format: functional
Salmonella enterica = experiment: Antibacterial activity against Salmonella choleraesuis; format: functional
[11] = test system: Mycobacterium tuberculosis; experiment: Antimycobacterial activity against Mycobacterium tuberculosis H37Rv ATCC 27294 assessed as inhibition of mycobacterial growth up to 50 ug/ml incubated for 2 weeks by MABA method; format: functional

| SMILES | Activity (Acinetobacter baumannii) | Activity (Escherichia coli [1]) | Activity (Escherichia coli [2]) | Activity (Pseudomonas aeruginosa) | Activity (Klebsiella pneumoniae [3]) | Activity (Klebsiella pneumoniae [4]) | Activity (Providencia rettgeri) | Activity [5] | MIC (Enterococcus faecium) [µg/mL] | MIC (Staphylococcus aureus) [µg/mL] | IC50 (Vero) [µg/mL] | MIC [6] [µg/mL] | MIC [7] [µg/mL] | Selectivity Index [8] | -logMIC [9] | MIC [9] [µg/mL] | selectivity ratio [10] | also measured |
| --- | --- | --- | --- | --- | --- | --- | --- | --- | --- | --- | --- | --- | --- | --- | --- | --- | --- | --- |
| COc1cc(C[C@@H](C)[C@@H](C)Cc2ccc(OC(=O)c3ccccn3)c(OC)c2)ccc1O (racemic) | inactive | inactive | inactive | inactive | inactive | inactive | inactive | inactive | > 50 | 25 | 65 (≈ 149 µM) | > 50 | > 50 | 2.6 | 3.87 | 50 (≈ 115 µM) | 1.3 | – |
| COc1cc(C[C@H](C)[C@@H](C)Cc2ccc(O)c(OC)c2)ccc1O | – | – | – | – | – | – | – | – | – | – | – | – | – | – | – | – | – | MIC (Bacillus subtilis): 1600 µM (≈ 529 µg/mL); MIC (Jonesia denitrificans): 400 µM (≈ 132 µg/mL); MIC (Salmonella enterica): 3100 µM (≈ 1020 µg/mL) |
| COc1cc(C[C@@H](C)[C@@H](C)Cc2ccc(OC(=O)c3cnccn3)c(OC)c2)ccc1O (racemic) | inactive | inactive | inactive | inactive | inactive | inactive | inactive | inactive | > 50 | 50 | 43.3 (≈ 99.3 µM) | > 50 | > 50 | 0.87 | 4.07 | 50 (≈ 115 µM) | 0.86 | – |
| CCCCCCCCCCCCCCCC(=O)Oc1ccc(C[C@H](C)[C@H](C)Cc2ccc(O)c(OC)c2)cc1OC (racemic) | inactive | inactive | inactive | inactive | inactive | inactive | inactive | inactive | > 50 | 50 | – | > 50 | > 50 | – | 4.54 | – | – | growth inhibition (GI) [11]: inactive |
| COc1cc(C[C@@H](C)[C@@H](C)Cc2ccc(OCCN3CCCCC3)c(OC)c2)ccc1O (racemic) | inactive | inactive | inactive | inactive | inactive | inactive | inactive | inactive | 50 | 50 | 62.6 (≈ 142 µM) | 50 | 50 | 1.25 | – | 12.5 (≈ 28.3 µM) | 5.01 | – |
| COc1cc(C[C@@H](C)[C@@H](C)Cc2ccc(OC)c(OC)c2)ccc1O (racemic) | inactive | inactive | inactive | inactive | inactive | inactive | inactive | inactive | > 50 | 25 | 47.8 (≈ 139 µM) | > 50 | > 50 | 1.91 | 3.94 | 50 (≈ 145 µM) | 0.96 | – |
| C[C@H]1COc2c(N3CCN(C)CC3)c(F)cc3c(=O)c(C(=O)O)cn1c23.C[C@H]1COc2c(N3CCN(C)CC3)c(F)cc3c(=O)c(C(=O)O)cn1c23.O [LEVOFLOXACIN] | – | – | – | – | – | – | – | – | > 50 | 3.12 | 293 | 12.5 | 12.5 | 93.81 | – | 0.078 | – | – |
| COc1cc(C[C@@H](C)[C@H](C)Cc2ccc(O)c(OC)c2)ccc1O [(-)-DIHYDROGUAIARETICACID] | – | – | – | – | – | – | – | – | – | – | – | – | – | – | – | – | – | MIC (Bacillus subtilis): 1600 µM (≈ 529 µg/mL); MIC (Jonesia denitrificans): 400 µM (≈ 132 µg/mL) |
